Experimental data published in ChEMBL document CHEMBL5465560, “Selectivity Literature for EUbOPEN Chemogenomic Library” (2024).

Legend:
[1] = biological target: Leukocyte tyrosine kinase receptor (Homo sapiens, UniProt P29376); conditions: at 10 µM
[2] = biological target: Ribosomal protein S6 kinase alpha-4 (Homo sapiens) (UniProt O75676); assay: Selectivity interaction (KinomeScan (DiscoverX)) EUB0001049a RPS6KA4; conditions: at 1 µM
[3] = biological target: T1, Dual specificity mitogen-activated protein kinase kinase 6 (Homo sapiens) (UniProt P52564); assay: Selectivity interaction (ActivX KiNativ screen (kinase selectivity in THP-1 cell lysates)) EUB0000639a MAP2K6; assay type: subcellular; conditions: lysate, at 0.2 µM
T1 sequence (whole entry): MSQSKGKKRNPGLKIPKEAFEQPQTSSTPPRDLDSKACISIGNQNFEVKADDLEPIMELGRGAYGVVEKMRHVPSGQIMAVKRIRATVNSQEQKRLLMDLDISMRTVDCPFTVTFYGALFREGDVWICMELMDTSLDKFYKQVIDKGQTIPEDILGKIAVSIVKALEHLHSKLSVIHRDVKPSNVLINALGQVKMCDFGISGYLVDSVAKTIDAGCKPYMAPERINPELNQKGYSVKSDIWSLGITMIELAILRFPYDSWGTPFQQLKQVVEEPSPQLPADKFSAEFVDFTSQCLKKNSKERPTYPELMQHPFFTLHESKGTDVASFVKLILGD

[4] = biological target: T2, Serine/threonine-protein kinase tousled-like 1 (Homo sapiens) (UniProt Q9UKI8); assay: Selectivity interaction (ActivX KiNativ screen (kinase selectivity in THP-1 cell lysates)) EUB0000639a TLK1; assay type: subcellular; conditions: lysate, at 0.01 µM
T2 sequence (whole entry): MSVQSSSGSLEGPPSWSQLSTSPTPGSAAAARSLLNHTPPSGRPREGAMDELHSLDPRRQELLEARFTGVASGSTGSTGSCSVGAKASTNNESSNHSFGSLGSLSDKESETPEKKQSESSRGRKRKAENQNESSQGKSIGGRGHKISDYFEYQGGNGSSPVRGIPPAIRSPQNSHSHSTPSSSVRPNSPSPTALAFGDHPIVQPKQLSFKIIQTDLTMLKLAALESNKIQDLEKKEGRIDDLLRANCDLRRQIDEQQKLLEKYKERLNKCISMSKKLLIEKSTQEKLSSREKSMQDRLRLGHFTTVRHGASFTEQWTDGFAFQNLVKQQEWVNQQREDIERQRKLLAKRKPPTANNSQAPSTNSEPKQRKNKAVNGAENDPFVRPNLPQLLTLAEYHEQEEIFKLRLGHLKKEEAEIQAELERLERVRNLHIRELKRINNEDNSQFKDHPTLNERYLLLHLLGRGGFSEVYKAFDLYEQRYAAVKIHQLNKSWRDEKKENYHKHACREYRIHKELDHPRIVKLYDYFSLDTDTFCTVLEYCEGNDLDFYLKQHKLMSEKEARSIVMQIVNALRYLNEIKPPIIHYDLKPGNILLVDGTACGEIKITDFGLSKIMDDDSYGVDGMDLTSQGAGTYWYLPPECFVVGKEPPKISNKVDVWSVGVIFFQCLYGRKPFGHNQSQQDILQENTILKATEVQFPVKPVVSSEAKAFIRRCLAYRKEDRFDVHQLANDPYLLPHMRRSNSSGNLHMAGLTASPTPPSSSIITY

[5] = biological target: Serine/threonine-protein kinase Chk2 (Homo sapiens) (UniProt O96017); assay: Selectivity interaction (ActivX KiNativ screen (kinase selectivity in THP-1 cell lysates)) EUB0000639a CHEK2; assay type: subcellular; conditions: lysate, at 0.04 µM
[6] = biological target: Calcium/calmodulin-dependent protein kinase type II subunit beta (Homo sapiens) (UniProt Q13554); assay: Selectivity interaction (ActivX KiNativ screen (kinase selectivity in THP-1 cell lysates)) EUB0000639a CAMK2B; assay type: subcellular; conditions: lysate, at 1 µM
[7] = biological target: Histone-lysine N-methyltransferase ASH1L (Homo sapiens) (UniProt Q9NR48); assay: Selectivity interaction (Transferase panel (protein, RNA, and DNA methyltransferases. and EP300 (acetyltransferase))) EUB0000270b ASH1L
[8] = biological target: Dual specificity protein kinase CLK3 (Homo sapiens, UniProt P49761); assay: Selectivity interaction (Kinase panel (Z-LYTE Assay)) EUB0001632a CLK3; conditions: at 10 µM
[9] = biological target: Cyclin-dependent kinase 1/cyclin B (Homo sapiens) (UniProt P06493+P14635+Q8WWL7+O95067); assay: Selectivity interaction (Kinase panel (Z-LYTE Assay)) EUB0001632a CDK1; assay type: protein-complex assay; conditions: at 10 µM
[10] = biological target: Fibroblast growth factor receptor 4 (Homo sapiens, UniProt P22455); assay: Selectivity interaction (KinomeScan (DiscoverX)) EUB0000229b FGFR4; conditions: at 10 µM
[11] = biological target: Serine/threonine-protein kinase mTOR (Homo sapiens, UniProt P42345); conditions: at 10 µM
[12] = biological target: Serine/threonine-protein kinase SIK1 (Homo sapiens) (UniProt P57059); assay: Selectivity interaction (Upstate Kinase Profiler service (Millipore)) EUB0000056c SIK1; conditions: at 1 µM
[13] = biological target: Serine/threonine-protein kinase OSR1 (Homo sapiens) (UniProt O95747); assay: Selectivity interaction (ActivX KiNativ screen (ex vivo kinase selectivity in human PBMCs)) EUB0001619a OXSR1; assay type: cell-based; conditions: PBMC, at 1 µM
[14] = biological target: Mitogen-activated protein kinase kinase kinase 20 (Homo sapiens) (UniProt Q9NYL2); assay: Selectivity interaction (KinomeScan (DiscoverX)) EUB0001619a MAP3K20; conditions: at 1 µM
[15] = biological target: Serine/threonine-protein kinase N1 (Homo sapiens, UniProt Q16512); assay: Selectivity interaction (SelectScreen profiling (Invitrogen)) EUB0000607a PKN1; conditions: at 2 µM
[16] = biological target: Ribosomal protein S6 kinase alpha-3 (Homo sapiens, UniProt P51812); assay: Selectivity interaction (SelectScreen profiling (Invitrogen)) EUB0000607a RPS6KA3; conditions: at 2 µM
[17] = biological target: Rho-associated protein kinase 1 (Homo sapiens) (UniProt Q13464); assay: Selectivity interaction (KinomeScan (DiscoverX)) EUB0000666a ROCK1; conditions: at 10 µM

Sequence of Mitogen-activated protein kinase kinase kinase 20 (Homo sapiens) (Q9NYL2 2-800 limits assumed): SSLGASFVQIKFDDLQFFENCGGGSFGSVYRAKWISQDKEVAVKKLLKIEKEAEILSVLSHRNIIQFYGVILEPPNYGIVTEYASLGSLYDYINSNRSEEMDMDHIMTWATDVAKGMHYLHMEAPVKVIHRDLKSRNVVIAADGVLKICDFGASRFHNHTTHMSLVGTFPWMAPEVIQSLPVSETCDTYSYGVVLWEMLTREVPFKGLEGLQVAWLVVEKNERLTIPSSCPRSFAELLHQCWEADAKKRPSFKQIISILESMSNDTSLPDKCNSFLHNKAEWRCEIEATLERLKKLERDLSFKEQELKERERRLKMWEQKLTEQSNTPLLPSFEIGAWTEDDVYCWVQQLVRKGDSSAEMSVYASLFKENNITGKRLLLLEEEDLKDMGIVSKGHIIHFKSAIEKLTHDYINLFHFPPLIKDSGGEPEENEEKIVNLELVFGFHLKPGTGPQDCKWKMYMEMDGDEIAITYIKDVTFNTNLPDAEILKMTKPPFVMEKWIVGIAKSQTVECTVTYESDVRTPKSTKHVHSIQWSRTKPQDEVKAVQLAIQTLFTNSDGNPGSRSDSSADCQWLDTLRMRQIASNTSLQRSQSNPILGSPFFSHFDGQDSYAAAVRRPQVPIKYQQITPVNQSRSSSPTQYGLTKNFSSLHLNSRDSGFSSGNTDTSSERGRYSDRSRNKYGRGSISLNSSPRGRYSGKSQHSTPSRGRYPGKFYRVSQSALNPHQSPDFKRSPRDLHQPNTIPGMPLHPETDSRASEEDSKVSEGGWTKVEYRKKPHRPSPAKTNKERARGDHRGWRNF
Sequence of Ribosomal protein S6 kinase alpha-4 (Homo sapiens) (O75676 whole entry, looked up): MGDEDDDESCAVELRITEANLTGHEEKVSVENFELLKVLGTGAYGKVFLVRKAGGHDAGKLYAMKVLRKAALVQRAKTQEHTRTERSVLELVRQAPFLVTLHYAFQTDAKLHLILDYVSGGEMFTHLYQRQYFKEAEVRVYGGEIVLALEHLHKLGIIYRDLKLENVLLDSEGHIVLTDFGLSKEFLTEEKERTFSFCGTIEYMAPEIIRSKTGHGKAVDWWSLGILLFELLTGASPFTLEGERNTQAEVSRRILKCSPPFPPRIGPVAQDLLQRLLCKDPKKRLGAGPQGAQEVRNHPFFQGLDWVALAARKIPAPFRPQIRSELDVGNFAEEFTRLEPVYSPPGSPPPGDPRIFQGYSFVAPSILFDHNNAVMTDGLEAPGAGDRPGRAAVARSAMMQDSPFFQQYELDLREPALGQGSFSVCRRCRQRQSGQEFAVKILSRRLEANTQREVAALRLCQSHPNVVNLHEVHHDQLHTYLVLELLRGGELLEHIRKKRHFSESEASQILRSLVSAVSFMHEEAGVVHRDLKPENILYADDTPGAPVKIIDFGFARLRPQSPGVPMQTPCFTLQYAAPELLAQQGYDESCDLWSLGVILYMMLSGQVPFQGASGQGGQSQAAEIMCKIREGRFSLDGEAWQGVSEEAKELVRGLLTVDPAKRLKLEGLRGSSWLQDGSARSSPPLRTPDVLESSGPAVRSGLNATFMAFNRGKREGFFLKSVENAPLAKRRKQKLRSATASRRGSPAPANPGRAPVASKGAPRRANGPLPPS
Sequence of Calcium/calmodulin-dependent protein kinase type II subunit beta (Homo sapiens) (Q13554 whole entry): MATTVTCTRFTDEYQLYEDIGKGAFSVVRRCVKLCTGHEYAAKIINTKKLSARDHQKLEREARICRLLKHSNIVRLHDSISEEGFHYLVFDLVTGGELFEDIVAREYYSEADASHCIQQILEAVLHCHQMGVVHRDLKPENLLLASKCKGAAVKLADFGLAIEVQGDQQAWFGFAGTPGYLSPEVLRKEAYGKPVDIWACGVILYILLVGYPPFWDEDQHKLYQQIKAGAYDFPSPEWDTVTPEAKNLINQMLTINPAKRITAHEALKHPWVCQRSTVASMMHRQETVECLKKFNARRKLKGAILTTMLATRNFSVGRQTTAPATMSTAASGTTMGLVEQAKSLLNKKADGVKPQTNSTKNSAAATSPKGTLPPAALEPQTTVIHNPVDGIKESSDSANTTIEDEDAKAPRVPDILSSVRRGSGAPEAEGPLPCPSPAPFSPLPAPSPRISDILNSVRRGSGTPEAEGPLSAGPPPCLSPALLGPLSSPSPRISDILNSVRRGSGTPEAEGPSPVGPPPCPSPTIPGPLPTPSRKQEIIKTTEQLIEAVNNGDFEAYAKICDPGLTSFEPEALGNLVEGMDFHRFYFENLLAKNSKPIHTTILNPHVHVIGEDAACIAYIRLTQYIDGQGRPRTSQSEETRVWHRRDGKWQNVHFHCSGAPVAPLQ
Sequence of Fibroblast growth factor receptor 4 (P22455 22-802 limits assumed): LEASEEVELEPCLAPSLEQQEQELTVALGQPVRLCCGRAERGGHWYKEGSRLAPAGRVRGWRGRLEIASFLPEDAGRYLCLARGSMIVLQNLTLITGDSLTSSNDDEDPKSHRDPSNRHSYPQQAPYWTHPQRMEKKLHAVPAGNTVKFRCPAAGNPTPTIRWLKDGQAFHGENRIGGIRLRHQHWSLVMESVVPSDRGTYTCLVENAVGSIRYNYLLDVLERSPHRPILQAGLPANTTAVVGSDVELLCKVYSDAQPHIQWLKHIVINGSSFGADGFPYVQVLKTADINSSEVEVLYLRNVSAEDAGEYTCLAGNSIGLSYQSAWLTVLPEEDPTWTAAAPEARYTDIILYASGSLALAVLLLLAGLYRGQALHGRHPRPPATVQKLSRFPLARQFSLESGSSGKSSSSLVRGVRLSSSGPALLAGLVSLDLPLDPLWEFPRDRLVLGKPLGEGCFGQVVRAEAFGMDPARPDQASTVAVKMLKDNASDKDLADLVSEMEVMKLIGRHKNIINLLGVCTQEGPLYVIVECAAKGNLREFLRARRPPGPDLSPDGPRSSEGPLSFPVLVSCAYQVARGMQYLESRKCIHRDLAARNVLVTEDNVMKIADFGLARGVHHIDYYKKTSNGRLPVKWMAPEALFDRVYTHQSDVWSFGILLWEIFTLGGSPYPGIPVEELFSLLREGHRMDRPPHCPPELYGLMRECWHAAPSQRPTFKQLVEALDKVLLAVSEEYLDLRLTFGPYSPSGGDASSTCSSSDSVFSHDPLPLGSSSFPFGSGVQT
Sequence of Serine/threonine-protein kinase SIK1 (Homo sapiens) (P57059 whole entry): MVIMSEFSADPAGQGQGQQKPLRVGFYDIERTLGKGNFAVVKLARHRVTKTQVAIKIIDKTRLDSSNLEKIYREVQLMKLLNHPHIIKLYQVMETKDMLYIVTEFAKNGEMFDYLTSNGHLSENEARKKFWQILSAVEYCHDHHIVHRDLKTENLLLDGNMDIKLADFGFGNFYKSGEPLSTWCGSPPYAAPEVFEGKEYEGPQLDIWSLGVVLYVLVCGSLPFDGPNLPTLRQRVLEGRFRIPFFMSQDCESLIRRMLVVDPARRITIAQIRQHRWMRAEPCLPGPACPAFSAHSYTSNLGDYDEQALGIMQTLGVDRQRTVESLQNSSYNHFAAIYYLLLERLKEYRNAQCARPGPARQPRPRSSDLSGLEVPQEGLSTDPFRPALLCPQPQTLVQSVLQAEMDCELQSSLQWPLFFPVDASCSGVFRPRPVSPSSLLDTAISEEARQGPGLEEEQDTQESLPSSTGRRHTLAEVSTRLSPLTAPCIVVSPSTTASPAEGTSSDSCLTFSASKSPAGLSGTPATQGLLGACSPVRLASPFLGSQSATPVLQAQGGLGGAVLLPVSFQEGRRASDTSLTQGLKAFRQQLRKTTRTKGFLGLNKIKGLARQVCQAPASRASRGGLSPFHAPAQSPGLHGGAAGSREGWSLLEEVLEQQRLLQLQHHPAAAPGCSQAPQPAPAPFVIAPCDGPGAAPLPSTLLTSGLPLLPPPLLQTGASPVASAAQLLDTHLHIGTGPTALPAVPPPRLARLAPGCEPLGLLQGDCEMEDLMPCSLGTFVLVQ
Sequence of Ribosomal protein S6 kinase alpha-3 (P51812 whole entry): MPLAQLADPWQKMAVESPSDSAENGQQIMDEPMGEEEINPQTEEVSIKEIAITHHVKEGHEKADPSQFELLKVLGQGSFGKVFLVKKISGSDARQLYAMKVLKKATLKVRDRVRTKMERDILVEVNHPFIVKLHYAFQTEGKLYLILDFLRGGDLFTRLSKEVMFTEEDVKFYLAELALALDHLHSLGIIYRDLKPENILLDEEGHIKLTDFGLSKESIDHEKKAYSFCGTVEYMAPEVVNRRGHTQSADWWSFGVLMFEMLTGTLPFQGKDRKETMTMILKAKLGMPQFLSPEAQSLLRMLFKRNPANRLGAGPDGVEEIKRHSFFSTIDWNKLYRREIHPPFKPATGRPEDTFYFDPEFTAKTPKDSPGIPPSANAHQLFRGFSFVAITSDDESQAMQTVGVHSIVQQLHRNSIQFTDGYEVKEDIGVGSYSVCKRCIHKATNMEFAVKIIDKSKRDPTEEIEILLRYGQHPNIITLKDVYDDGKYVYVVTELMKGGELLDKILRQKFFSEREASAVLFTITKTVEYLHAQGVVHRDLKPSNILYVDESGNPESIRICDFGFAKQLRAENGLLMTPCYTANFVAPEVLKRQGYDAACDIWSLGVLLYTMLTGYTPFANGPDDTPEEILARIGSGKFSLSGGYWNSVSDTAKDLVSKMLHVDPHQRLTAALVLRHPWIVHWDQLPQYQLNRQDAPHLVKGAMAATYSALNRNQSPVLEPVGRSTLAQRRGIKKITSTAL
Sequence of Serine/threonine-protein kinase OSR1 (Homo sapiens) (O95747 2-527 limits assumed): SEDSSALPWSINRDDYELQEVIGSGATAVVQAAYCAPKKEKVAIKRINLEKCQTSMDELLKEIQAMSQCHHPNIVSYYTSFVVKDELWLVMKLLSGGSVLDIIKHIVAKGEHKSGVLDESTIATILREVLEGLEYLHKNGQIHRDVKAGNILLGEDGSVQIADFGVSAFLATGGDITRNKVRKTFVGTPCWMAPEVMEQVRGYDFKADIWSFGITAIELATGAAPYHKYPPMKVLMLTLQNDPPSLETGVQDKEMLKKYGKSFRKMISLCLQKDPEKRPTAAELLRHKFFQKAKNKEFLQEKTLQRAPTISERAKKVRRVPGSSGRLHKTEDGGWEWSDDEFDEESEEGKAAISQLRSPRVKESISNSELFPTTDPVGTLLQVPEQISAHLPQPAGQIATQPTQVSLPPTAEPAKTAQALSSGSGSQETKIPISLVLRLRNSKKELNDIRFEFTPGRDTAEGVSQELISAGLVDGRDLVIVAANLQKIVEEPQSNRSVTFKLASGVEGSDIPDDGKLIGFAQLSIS

Cc1cc([C@@H](C)Nc2ccccc2C(=O)O)c2nc(N3CCOCC3)cc(=O)n2c1 [AZD-6482]
% of control [1]: 95%

COc1cc(Nc2nc(C)cc(-c3cnn4nc(OC)ccc34)n2)cc(C(F)(F)F)c1
% of control [2]: 96%

CC[C@@H]1[C@H](F)C(=O)N[C@@H]1COc1nccc2cc(C(N)=O)c(OC)cc12 [ZIMLOVISERTIB]
% of inhibition [3]: 12.8% | % of inhibition [4]: 1.9% | % of inhibition [5]: -4.5% | % of inhibition [6]: 10%

Cc1cc(CN)cc(C)c1-c1ncn(C)c1-c1cncn1C
% activity ([7]; at 1 µM): > 90% | % activity ([7]; at 10 µM): > 80%

Cn1cc(-n2cnc3c(NCc4nc5cc(Cl)c(Cl)cc5[nH]4)nc(N4CCOCC4)nc32)cn1
% of control [8]: 8.16% | % of control [9]: 3.94%

COc1cc(N(C)c2ccnc3ccc(C(F)(F)F)cc23)cc(OC)c1OC
% binding [10]: 100%

CCC(=O)N1CCN(c2ccc(-n3c(=O)ccc4cnc5ccc(-c6cnc7ccccc7c6)cc5c43)cc2C(F)(F)F)CC1
% of control [11]: 0%

Cc1ccc(-c2ccc3c(ccc4sc5c(c43)NC[C@@H](C)NC5=O)n2)cn1
% of inhibition [12]: 4%

N#Cc1cccc(-c2c[nH]c3ncnc(N4CCOCC4)c23)c1
% of inhibition [13]: -55% | % of control [14]: 86%

CNC(=O)Nc1ccc(-c2nc(N3CC4CCC(C3)O4)c3cnn(C4CCC5(CC4)OCCO5)c3n2)cc1
% of inhibition [15]: 14% | % of inhibition [16]: -2%

O=C(NOC[C@H](O)CO)c1ccc(F)c(F)c1Nc1ccc(I)cc1F
% of control [17]: 100%
